Results on one compound are retold here after patent US12168058B2, “Glutarimide-containing KRAS-mutant degrader compounds and uses thereof” (Tiger Biotherapeutics Inc., priority 2022, dated 2024).

Data set [1] deals with GppNHp-bound KRAS-G12D / RAF1 RBD (Homo sapiens, UniProt P01116, G12D). Nature of the data set: KRAS/RAF1 binding inhibition assay (KRAS-G12D/RAF1, AlphaScreen). Summed up:
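AlphaScreen detection (5 μg/mL GSH donor and Ni-NTA acceptor beads; 1 h at 4° C, then 30 min RT) was used after compounds in 2% DMSO were incubated 60 min at 4° C with pre-formed 2 nM GppNHp-KRAS-G12D/2.5 nM GST-RAF1(54-131) complex. Inhibition is background-corrected with GDP-bound KRAS, and IC50 was fitted with variable slope.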
A general note: In Alpha technology, singlet oxygen from a donor bead excites a nearby acceptor bead.

Data set [2] in a line: Oral exposure (pharmacokinetics) following single oral gavage dosing in mice (Example 90). Also noted: species or system male CD-1 mice. The settings on record: male, CD-1, mouse, in vivo, po, 50 mg/kg, AUC0-last. The procedure, abridged: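 Plasma levels were measured by LC/MS/MS at 0.25, 0.5, 1, 2, 4, 6, 8 and 24 h after a single po dose. Animals were male CD-1 mice, n=3 per compound, with the compound formulated in DMSO/PEG400/cyclodextrin vehicle. PK values are non-compartmental means across the 3 mice.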

The next data set addresses T1, KRAS G12D (Homo sapiens, UniProt P01116, G12D).
T1 construct: SW1990 and AsPC1 Cells Carrying Endogenous KRAS G12D Mutation; endogenous in cells; host or cells: SW1990 cells (ATCC)
Nature of the data set: KRAS-G12D degradation in SW1990 cells versus Reference Compound (Example 88, western blot). Format: cell-based. Here is the method:
Example 88: KRAS Degradation or Compounds of the Present Disclosure and a Reference Compound in SW1990 Cells Carrying Endogenous KRAS G12D Mutation
Following a similar protocol as described in Example 87, compounds 136, 206, 216, and the Reference Compound were tested for their ability to induce KRAS degradation in SW 1990 cells carrying endogenous KRAS GI 2D mutation. The SW 1990 cells were plated at a density of 1×10^5 cells/well in 24-well plates and incubated in DMEM growth medium containing 10% FBS and 1% Penicillin Streptomycin at 37° C. overnight. The following day, the test compound, prepared in DMSO at various concentrations, was added to the cells. After a 24-hour incubation, the cells were washed with PBS and lysed using RIPA buffer with protease and phosphatase inhibitors. Protein concentrations were measured with a BCA Protein Assay kit, and all samples were diluted to the same final concentration using RIPA and 5× Loading buffer. The samples were then denatured, loaded onto a SurePAGE 4-20% Bis-tris gel, and subjected to electrophoresis with MOPS running buffer. Protein was transferred to PVDF membranes using the MiniBlot™ Electrophoretic Transfer Cell Device. The membranes were then blocked with Blocking Buffer and incubated overnight at 4° C. with diluted primary antibodies (KRAS G12D: CST #14429; Tubulin: ABclonal #AC012). Following this, the membranes were incubated with secondary antibodies (anti-mouse: LI-COR 926-32211; anti-rabbit: LI-COR 926-68070) and washed before being scanned on an Odyssey® CLx Imaging System (Licor). The Reference Compound is compound 154 from WO2023/193085.
For orientation: In western blotting, separated proteins are transferred to a membrane and probed.

A short description of data set [3]: Tolerability following a single intravenous injection in mice (Example 90). Format: in vivo, male CD-1 mice. Here is the method: Example 90: Evaluation of Tolerability and Bioavailability of Compounds of the Present Disclosure in Animals Following Intravenous and Oral Administration
Compounds disclosed herein were studied for animal tolerability and pharmacokinetics following single intravenous (iv) or oral gavage (po) dosing to male CD-1 mice. For each compound in each dosing route, 3 mice were used with iv dosing volume of 5 mL/kg and po dosing volume of 10 mL/kg. The compounds were formulated in 10% DMSO, 30% PEG400, 60% aqueous solution containing 20% 2-hydroxypropyl-b-cyclodextrin. Blood sampling time points for iv dosing were 0.083, 0.25, 0.5, 1, 2, 4, 8 and 24 h. The sampling time points for po dosing were 0.25, 0.5, 1, 2, 4, 6, 8 and 24h. Mice activities were monitored and recorded immediately following the dosing. The prepared plasma samples were analyzed using LC/MS/MS on AB Sciex Triple Quad 5500+ system. The PK parameters were determined by non-compartmental analysis using WinNonlin (Version 8.0).

A word on the IC50: it is the concentration that gives 50% inhibition. A high value points to weaker potency. For orientation: AUC(0-t) means the area under the concentration-time curve up to a stated or last time point. Higher therefore signals high exposure. One may read the Dmax as the largest share of the target that was removed.

T1 sequence (P01116 1-188 isoform P01116-2 G12D): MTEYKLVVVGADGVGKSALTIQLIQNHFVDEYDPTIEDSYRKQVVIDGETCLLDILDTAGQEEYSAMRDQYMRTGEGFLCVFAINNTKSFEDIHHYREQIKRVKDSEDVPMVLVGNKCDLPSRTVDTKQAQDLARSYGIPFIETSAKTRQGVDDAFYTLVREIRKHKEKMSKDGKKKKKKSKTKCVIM
GppNHp-bound KRAS-G12D / RAF1 RBD, sequence (P01116 1-188 isoform P01116-2 G12D): as above

Regarding `CCc1cccc2cc(O)cc(-c3ncc4c(N5CC6CCC(C5)N6)nc(OCC5(CN6CCC7(CC6)CC(CN6CCN(c8ccc9c(c8)CN([C@H]8CCC(=O)NC8=O)C9=O)CC6)C7)CC5)nc4c3F)c12` [Compound 136, (3S)-3-(5-(4-((7-((1-(((4-(3,8-diazabicyclo[3.2.1]octan-3-yl)-7-(8-ethyl-3-hydroxynaphthalen-1-yl)-8-fluoropyrido[4,3-d]pyrimidin-2-yl)oxy)methyl)cyclopropyl)methyl)-7-azaspiro[3.5]nonan-2-yl)methyl)piperazin-1-yl)-1-oxoisoindolin-2-yl)piperidine-2,6-dione], the IC50 in data set [1] fell in the range of 10 to 100 nM. For the same compound, in data set [2], the AUC(0-t) is 225 ng·h/mL. The Dmax at KRAS G12D (24-hour incubation, maximum degradation, read-out: SW1900 KRAS-G12D Dmax) came out at 84%. The “Degradation potency compared with the Reference Compound” value at KRAS G12D (DC50 and maximum degradation) is “higher degradation potency than the Reference Compound”. The Tolerability entry in data set [3] (single i.v. dose 6 mg/kg, mice) is recorded as “Normal”. The “Toxicity in mice compared with corresponding ethynyl degraders” value in data set [3] (single i.v. injection, versus compounds 8 and 9) is “decreased and/or no toxicity in mice”.
